Test results reported in patent publication US11008605B2, “Analysis of single-stranded RNA” (VILNIUS UNIVERSITY, priority 2015, dated 2021).

Key:
Dm-piRMT = target: T1, Dm-piRMT (Drosophila melanogaster, UniProt Q7K175); assay: Metal ion requirement of piRMT methylation of ssRNA miR173.1 (NaIO4/β-elimination, PAG autoradiography); type: biochemical; parameters: modification efficiency towards RNA substrates with different 3′ terminal nucleotides (U, C, A, G): dose or concentration left out as unconfirmed
T1 sequence (Q7K175 1-391): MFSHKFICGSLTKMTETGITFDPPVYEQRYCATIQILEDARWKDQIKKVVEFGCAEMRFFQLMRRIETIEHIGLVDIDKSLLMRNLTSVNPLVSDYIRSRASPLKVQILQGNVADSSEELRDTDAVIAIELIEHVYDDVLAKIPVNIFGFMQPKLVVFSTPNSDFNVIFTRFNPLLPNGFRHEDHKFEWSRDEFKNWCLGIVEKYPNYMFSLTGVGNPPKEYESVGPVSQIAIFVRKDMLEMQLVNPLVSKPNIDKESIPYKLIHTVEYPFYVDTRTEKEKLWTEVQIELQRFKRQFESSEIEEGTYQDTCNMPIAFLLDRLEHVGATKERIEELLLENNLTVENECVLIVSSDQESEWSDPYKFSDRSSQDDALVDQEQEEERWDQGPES
Protocol: To test the requirement of different metal cofactors, 20 μl reaction volumes, containing reaction buffer [10 mM Tris-HCl (pH 7.4), 50 mM NaCl, 0.1 mg/ml BSA, 5% (v/v) glycerol and 0.05 u/μl RiboLock (Thermo Scientific)], 0.2 μM ^32P-labelled miR173.1 (5′-[…]-3′, 22 nt) (SEQ ID NO: 3), 0.1 mM AdoMet, […] After 30 min of incubation at 37° C., the degree of modification was determined by NaIO4/β-elimination reaction, during which RNA was treated with 0.2 mM NaIO4 in borax/boric acid buffer [0.06 M, pH 8.6] for 15 min followed by 75 min incubation in borax/boric acid buffer II [0.06 M pH 9.6] at 42° C. Reaction samples were analyzed in 13% denaturing polyacrylamide gel (PAG) and autoradiographed. Fractions of methylated RNA, represented by bands with lower electrophoretic mobility, were evaluated using Multi Gauge version 3.0 software (Fujifilm). The depletion of metal ions by EDTA in the reaction mixture, together with the sample without any metal cofactor added, further confirms that the effective piRMT methylation is due to Co^2+ and Co^3+ ions. B. Column-diagram of RNA methylation efficiency with different metal cofactors. Results are average of duplicate experiments±S.D.
B. Column-diagram of modification efficiency of miR173.1 with different 3′ terminal nucleotides. Results are average of two experiments±S.D.

Hs-piRMT [1] = target: T2, Hs-piRMT (Homo sapiens, UniProt Q5T8I9); assay: as above; type: biochemical; conditions: 10 mM metal ion, 1 μM piRMT, 0.2 μM miR173.1, 0.1 mM AdoMet, 30 min, 37° C.
T2 sequence (Q5T8I9 whole entry): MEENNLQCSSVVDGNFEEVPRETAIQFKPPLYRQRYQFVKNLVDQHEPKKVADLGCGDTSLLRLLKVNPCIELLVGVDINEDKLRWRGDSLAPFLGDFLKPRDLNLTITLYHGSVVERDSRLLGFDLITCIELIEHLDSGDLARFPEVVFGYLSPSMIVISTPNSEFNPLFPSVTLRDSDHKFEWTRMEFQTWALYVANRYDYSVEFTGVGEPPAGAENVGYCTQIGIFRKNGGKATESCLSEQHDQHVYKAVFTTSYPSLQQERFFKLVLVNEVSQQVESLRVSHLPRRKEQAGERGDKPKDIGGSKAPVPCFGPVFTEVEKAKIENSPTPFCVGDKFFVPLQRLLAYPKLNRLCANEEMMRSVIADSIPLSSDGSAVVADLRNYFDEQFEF
Protocol: To test the requirement of different metal cofactors, 20 μl reaction volumes, containing reaction buffer [10 mM Tris-HCl (pH 7.4), 50 mM NaCl, 0.1 mg/ml BSA, 5% (v/v) glycerol and 0.05 u/μl RiboLock (Thermo Scientific)], 0.2 μM ^32P-labelled miR173.1 (5′-[…]-3′, 22 nt) (SEQ ID NO: 3), 0.1 mM AdoMet, 10 mM metal ion and 1 μM of piRMT proteins' were mixed. After 30 min of incubation at 37° C., the degree of modification was determined by NaIO4/β-elimination reaction, during which RNA was treated with 0.2 mM NaIO4 in borax/boric acid buffer [0.06 M, pH 8.6] for 15 min followed by 75 min incubation in borax/boric acid buffer II [0.06 M pH 9.6] at 42° C. Reaction samples were analyzed in 13% denaturing polyacrylamide gel (PAG) and autoradiographed. Fractions of methylated RNA, represented by bands with lower electrophoretic mobility, were evaluated using Multi Gauge version 3.0 software (Fujifilm). The depletion of metal ions by EDTA in the reaction mixture, together with the sample without any metal cofactor added, further confirms that the effective piRMT methylation is due to Co^2+ and Co^3+ ions. B. Column-diagram of RNA methylation efficiency with different metal cofactors. Results are average of duplicate experiments±S.D.

Hs-piRMT [2] = target: T2, Hs-piRMT; conditions: Mn2+ as metal cofactor; cited from earlier work

SMILES	degree of methylation of ssRNA substrate with metal ion cofactor (Dm-piRMT; 10 mM metal ion, 1 μM piRMT, 0.2 μM miR173.1, 0.1 mM AdoMet, 30 min, 37° C.)	modification efficiency towards RNA substrates with different 3′ terminal nucleotides (U, C, A, G) (Dm-piRMT; Co2+ as metal cofactor, miR173.1 variants)	degree of methylation of ssRNA substrate with metal ion cofactor (Hs-piRMT [1])	RNA modification level in presence of metal ion (Hs-piRMT [2])
[Co+2] [Co^2+]	full methylation	equally effective modification	full methylation	–
[Mn+2] [Mn^2+]	–	–	–	seemingly low levels
